From the SangsterLogP compilation

assay: method code SF-AS, from DOI: 10.1021/es00166a009, PMID: 22195514; details: not given

| Structure (SMILES) | logP |
| --- | --- |
| Cc1ccc([N+](=O)[O-])c(O)c1 | 2.31 |

same assay, conditions: pH 1.5

| Structure (SMILES) | logD |
| --- | --- |
| O=[N+]([O-])c1cc(-c2ccccc2)ccc1O | 3.71 |
| Cc1ccc(O)c([N+](=O)[O-])c1 | 2.37 |
| Cc1cc(O)c([N+](=O)[O-])cc1Cl | 2.93 |
| O=[N+]([O-])c1ccc(F)cc1O | 1.91 |
| O=[N+]([O-])c1ccccc1O | 1.89 |
| O=Cc1ccc(O)c([N+](=O)[O-])c1 | 1.48 |
| CCC(C)c1ccc(O)c([N+](=O)[O-])c1 (stereo unspecified) | 3.84 |
| O=[N+]([O-])c1cc(C(F)(F)F)ccc1O | 2.34 |
| COc1ccc(O)c([N+](=O)[O-])c1 | 2.02 |

assay: method code SF-AS,RC, from DOI: 10.1021/es00166a009, PMID: 22195514; details: pH 1.5

| Structure (SMILES) | logD |
| --- | --- |
| Cc1cccc(O)c1[N+](=O)[O-] | 2.29 |
